In PubChem BioAssay AID330 (DTP/NCI, 2004):
Where “and” joins values, the source holds several entries; their conditions need not be identical. Equal values may be shown once. Toxic doses and inconclusive results are not listed. Rule for the calls: active = survival T/C of 150% or more; inactive = T/C below 125% in these data. Peptide text beside a SMILES is read from it. * marks the point of attachment. Boc = CC(C)(C)OC(=O)*; NHNH2 = NN*

System: P388 leukemia ip, CD2F1 mice, survival T/C
Assay: NCI In Vivo Anticancer Drug Screen. Data for tumor model P388 Leukemia (intraperitoneal) in CD2F1 (CDF1) mice
Conditions: endpoint: median survival time, higher = longer survival
Method in brief: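 Mice carrying the transplanted tumor received test compound or vehicle. Survival was recorded in each group, and the value is the treated-group measurement divided by that of the vehicle-treated control group.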

[1] = dose: 60.0 mg/kg/injection, schedule: Q01DX005 (ip), vehicle: saline with Tween-80
[2] = dose: 120.0 mg/kg/injection, schedule: Q01DX005 (ip), vehicle: saline with Tween-80
[3] = dose: 50.0 mg/kg/injection, schedule: Q01DX009 (ip), vehicle: saline with Tween-80
[4] = dose: 100.0 mg/kg/injection, schedule: Q01DX009 (ip), vehicle: saline with Tween-80
[5] = dose: 200.0 mg/kg/injection, schedule: Q01DX009 (ip), vehicle: saline with Tween-80
[6] = dose: 50.0 mg/kg/injection, schedule: Q01DX005 (ip), vehicle: saline with Tween-80
[7] = dose: 100.0 mg/kg/injection, schedule: Q01DX005 (ip), vehicle: saline with Tween-80
[8] = dose: 200.0 mg/kg/injection, schedule: Q01DX005 (ip), vehicle: saline with Tween-80
[9] = dose: 50.0 mg/kg/injection, schedule: Q04DX003 (ip), vehicle: saline with Tween-80
[10] = dose: 100.0 mg/kg/injection, schedule: Q04DX002 (ip), vehicle: saline
[11] = dose: 25.0 mg/kg/injection, schedule: Q01DX009 (ip), vehicle: saline with Tween-80

Measured: T/C

COCOCCC1C=CCC2C(=O)C=C(OC)C(O)C12C (stereo not drawn)
inactive: dose: 50.0 mg/kg/injection, schedule: Q01DX005 (ip), vehicle: Klucel (hydroxypropylcellulose) (HPC) 108 % of control | dose: 100.0 mg/kg/injection, schedule: Q01DX005 (ip), vehicle: Klucel (hydroxypropylcellulose) (HPC) 97 % of control | dose: 200.0 mg/kg/injection, schedule: Q01DX005 (ip), vehicle: Klucel (hydroxypropylcellulose) (HPC) 101 % of control

CC1OC(C)C(O)C2=C1C(=O)c1ccccc1C2=O (stereo not drawn)
inactive: [1] 100 % of control | [2] 100 % of control

O=S(=O)(NC(Cc1nc2ccccc2[nH]1)c1nc2ccccc2[nH]1)c1ccccc1 (stereo not drawn)
inactive: [3] 95 % of control | [4] 89 % of control | [5] 93 % of control

Nc1ccc(O)c(N)c1
inactive: dose: 0.78 mg/kg/injection, schedule: Q01DX009 (ip), vehicle: saline 99 % of control | dose: 1.56 mg/kg/injection, schedule: Q01DX009 (ip), vehicle: saline 96 % of control | dose: 3.12 mg/kg/injection, schedule: Q01DX009 (ip), vehicle: saline 102 % of control | dose: 6.25 mg/kg/injection, schedule: Q01DX009 (ip), vehicle: saline 105 % of control

CNc1nc(N)nc2c1nc(Cl)n2C1OC(CO)C(O)C1O (stereo not drawn)
inactive: [6] 102 % of control | [7] 101 % of control | [8] 95 % of control

CC(C)(C)CC(C)(C)c1ccc(O)cc1O
inactive: dose: 12.5 mg/kg/injection, schedule: Q04DX003 (ip), vehicle: saline with Tween-80 110 % of control | dose: 25.0 mg/kg/injection, schedule: Q04DX003 (ip), vehicle: saline with Tween-80 105 % of control | [9] 120 % of control

Cc1c(NC(=O)Nc2cc([N+](=O)[O-])ccc2Cl)c(=O)n(-c2ccccc2)n1C
inactive: [1] 94 % of control | [2] 86 % of control

CC12C(=O)C(Br)C1CC2S(=O)(=O)O (stereo not drawn)
inactive: dose: 25.0 mg/kg/injection, schedule: Q04DX002 (ip), vehicle: saline 97 % of control | dose: 50.0 mg/kg/injection, schedule: Q04DX002 (ip), vehicle: saline 95 % of control | [10] 98 % of control | dose: 200.0 mg/kg/injection, schedule: Q04DX002 (ip), vehicle: saline with Tween-80 96 % of control | dose: 400.0 mg/kg/injection, schedule: Q04DX002 (ip), vehicle: saline with Tween-80 99 % of control

Cc1nc(C#N)c(=N)n(O)c1Cl
inactive: dose: 6.25 mg/kg/injection, schedule: Q01DX009 (ip), vehicle: saline with Tween-80 99 % of control and 102 % of control and 123 % of control | dose: 12.5 mg/kg/injection, schedule: Q01DX009 (ip), vehicle: saline with Tween-80 104 % of control and 106 % of control | [11] 110 % of control and 113 % of control

CC/C(=N/NS(=O)(=O)c1ccc(C)cc1)c1ccc([N+](=O)[O-])cc1
inactive: [10] 100 % of control | dose: 200.0 mg/kg/injection, schedule: Q04DX002 (ip), vehicle: saline 105 % of control | dose: 400.0 mg/kg/injection, schedule: Q04DX002 (ip), vehicle: saline 100 % of control

O=C(N=Nc1c(O)[nH]c2ccccc12)C(F)(F)F
inactive: [6] 108 % of control | [7] 101 % of control | [8] 108 % of control

c1csc(-c2n[se]c(-c3cccs3)n2)c1
inactive: dose: 12.5 mg/kg/injection, schedule: Q04DX002 (ip), vehicle: saline with Tween-80 99 % of control | dose: 25.0 mg/kg/injection, schedule: Q04DX002 (ip), vehicle: saline with Tween-80 100 % of control

CC(C)(C)OC(=O)NC(Cc1c[nH]c2ccccc12)C(=O)NC(CS)C(=O)NN (stereo not drawn) (Boc-Trp-Cys-NHNH2; configuration not given here)
inactive: dose: 12.5 mg/kg/injection, schedule: Q01DX009 (ip), vehicle: other 90 % of control | dose: 25.0 mg/kg/injection, schedule: Q01DX009 (ip), vehicle: other 94 % of control | dose: 50.0 mg/kg/injection, schedule: Q01DX009 (ip), vehicle: other 88 % of control | dose: 100.0 mg/kg/injection, schedule: Q01DX009 (ip), vehicle: other 98 % of control | dose: 200.0 mg/kg/injection, schedule: Q01DX009 (ip), vehicle: other 94 % of control

CC(=O)/C=C1/NC(C(=O)c2ccccc2)=CNC1c1ccccc1 (stereo not drawn)
inactive: [1] 102 % of control | [2] 91 % of control | dose: 240.0 mg/kg/injection, schedule: Q01DX005 (ip), vehicle: saline with Tween-80 95 % of control

O=C(O)c1cc2cc([N+](=O)[O-])ccc2[se]1
inactive: dose: 12.5 mg/kg/injection, schedule: Q01DX009 (ip), vehicle: suspension in saline 100 % of control | dose: 25.0 mg/kg/injection, schedule: Q01DX009 (ip), vehicle: suspension in saline 101 % of control | dose: 50.0 mg/kg/injection, schedule: Q01DX009 (ip), vehicle: saline 86 % of control | dose: 50.0 mg/kg/injection, schedule: Q01DX009 (ip), vehicle: suspension in saline 102 % of control | dose: 200.0 mg/kg/injection, schedule: Q01DX009 (ip), vehicle: saline 100 % of control

COc1cc(/C(C)=N/N=C(\C)c2ccc(O)c(OC)c2)ccc1O
inactive: dose: 100.0 mg/kg/injection, schedule: Q01DX001 (ip), vehicle: saline with Tween-80 100 % of control | dose: 200.0 mg/kg/injection, schedule: Q01DX001 (ip), vehicle: saline with Tween-80 95 % of control | dose: 400.0 mg/kg/injection, schedule: Q01DX001 (ip), vehicle: saline with Tween-80 100 % of control

O=C(O)c1ccc(N=CC2CO2)cc1 (stereo not drawn)
inactive: [3] 99 % of control | [4] 102 % of control | [5] 87 % of control

CN=Cc1ccc(OC)cc1
inactive: [11] 95 % of control | [3] 95 % of control | [4] 95 % of control

[O-][N+]1(CC[N+]2([O-])CCCCC2)CCCCC1
inactive: dose: 60.0 mg/kg/injection, schedule: Q01DX005 (ip), vehicle: saline 97 % of control | dose: 120.0 mg/kg/injection, schedule: Q01DX005 (ip), vehicle: saline 100 % of control | dose: 240.0 mg/kg/injection, schedule: Q01DX005 (ip), vehicle: saline 97 % of control

O=C1NC(CN2CCCC(O)C2)C(=O)NC1CN1CCCC(O)C1 (stereo not drawn)
inactive: dose: 12.5 mg/kg/injection, schedule: Q01DX009 (ip), vehicle: water 110 % of control and 95 % of control | dose: 25.0 mg/kg/injection, schedule: Q01DX009 (ip), vehicle: water 96 % of control and 90 % of control | dose: 50.0 mg/kg/injection, schedule: Q01DX009 (ip), vehicle: water 96 % of control and 110 % of control | dose: 100.0 mg/kg/injection, schedule: Q01DX009 (ip), vehicle: water 122 % of control and 114 % of control | dose: 200.0 mg/kg/injection, schedule: Q01DX009 (ip), vehicle: water 116 % of control

COc1ccc(-c2csc(NC(=O)Nc3nc(-c4ccc(OC)cc4)cs3)n2)cc1
inactive: dose: 15.0 mg/kg/injection, schedule: Q01DX005 (ip), vehicle: saline with Tween-80 97 % of control | dose: 30.0 mg/kg/injection, schedule: Q01DX005 (ip), vehicle: saline with Tween-80 100 % of control | [1] 87 % of control and 91 % of control

Nc1ncnc(N)c1N=O
inactive: [9] 100 % of control | dose: 100.0 mg/kg/injection, schedule: Q04DX003 (ip), vehicle: saline with Tween-80 104 % of control | dose: 200.0 mg/kg/injection, schedule: Q04DX003 (ip), vehicle: saline with Tween-80 100 % of control

Cc1nc2cc(C)[nH]c(=O)n2n1
inactive: [6] 105 % of control | [7] 107 % of control | [8] 104 % of control

C(=C1CC(=Cc2ccccc2)C1)c1ccccc1
inactive: dose: 100.0 mg/kg/injection, schedule: Q01DX001 (ip), vehicle: Klucel (hydroxypropylcellulose) (HPC) 94 % of control | dose: 200.0 mg/kg/injection, schedule: Q01DX001 (ip), vehicle: Klucel (hydroxypropylcellulose) (HPC) 88 % of control | dose: 400.0 mg/kg/injection, schedule: Q01DX001 (ip), vehicle: Klucel (hydroxypropylcellulose) (HPC) 88 % of control
